In patent US5036046A, “Method for enhancing healing of corneal endothelial wounds” (Eye Research Institute of Retina Foundation, Inc., priority 1988, dated 1991):
“Also recorded” adds a separate entry of the source. Like-named read-outs stand apart in the source and are kept apart here.

How the values were obtained:
[1] = system: cultured rabbit corneal endothelium; assay: Pharmacological regulation of morphology and mitosis in cultured rabbit corneal endothelium; assay type: cell-based
[2] = system: rabbit corneal endothelial cells; assay: Cell shape morphometry of cultured rabbit corneal endothelial cells (Example 1); details: for potentiation of EGF-induced elongation: 10^-5 M (equimolar), in presence of EGF; for rank order of potency on corneal endothelial cell shape: cyclooxygenase inhibitors, with EGF; for cell shape at confluence: cells cultured seven days in the presence of the agent; for distribution of major axes (Amax): versus control
[3] = system: cultured corneal endothelial cells; details: control cultures and cultures with EGF added
[4] = system: Corneal endothelial cells; assay: f-actin labelling with rhodamine labelled phallacidin in cultured corneal endothelial cells; details: 1 week in culture
[5] = system: Corneal endothelial cells; assay: Transmission electron microscopy of pharmacologically modulated endothelial phenotypes; details: treated cultures
cat corneal endothelium = details: 22° C.; cited from earlier work
[6] = system: most cell culture systems; details: cited from earlier work
[7] = system: endothelium of excised corneas; assay: Shape of the cells near the wound boundary in excised corneas
[8] = system: endothelium of excised corneas; assay: Cell migration near the wound boundary in excised corneas; assay type: cell-based, New Zealand white rabbits; details: EGF 10 ng/ml, indomethacin 1 μM in M-K medium
[9] = system: endothelium of excised corneas; assay: Endothelial wound area / closure in excised corneas (specular microscopy)
[10] = agent added to TPA containing medium

C=C[C@@]1(C)CC(=O)[C@]2(O)[C@@]3(C)[C@@H](O)CCC(C)(C)[C@@H]3[C@H](O)[C@H](OC(C)=O)[C@@]2(C)O1 [Forskolin]
effect on EGF and INDO-induced elongation ([1]; agent added with EGF and INDO): prevented | effect on cell density / mitosis in presence of EGF and INDO ([1]; agent added with EGF and INDO): inhibited endothelial mitosis

CCCCCCCCCCCCCC(=O)O[C@@H]1[C@@H](C)[C@@]2(O)[C@@H](C=C(CO)C[C@]3(O)C(=O)C(C)=C[C@@H]23)[C@H]2C(C)(C)[C@]12OC(C)=O [TPA]
cell density / mitosis, agent alone [1]: increased cell density | cell shape / elongation, agent alone [1]: caused elongation

C[C@@H]1C[C@H]2[C@@H]3CCC4=CC(=O)C=C[C@]4(C)[C@@]3(F)[C@@H](O)C[C@]2(C)[C@@]1(O)C(=O)CO [dexamethasone]
potentiation of EGF-induced elongation [2]: has no effect

CC(C(=O)O)c1ccc(-c2ccccc2)c(F)c1 (stereo not shown) [flurbiprofen]
rank order of potency on corneal endothelial cell shape [2]: indomethacin<suprofen<flurbiprofen

COc1ccc2c(c1)c(CC(=O)O)c(C)n2C(=O)c1ccc(Cl)cc1 [indomethacin]
synthesis of pgE2 [3]: totally inhibits | effect on TPA-induced elongation [1, 10]: marked enhancement of cellular elongation | effect on cell density / mitogenic response to TPA [1, 10]: had no effect on final cell density | cell shape at confluence [2]: elongated at confluence with a stellate shape | distribution of major axes (Amax) ([2]; cultured with agent): increases | rank order of potency on corneal endothelial cell shape [2]: indomethacin<suprofen<flurbiprofen | f-actin staining pattern [4]: diffuse reticular staining throughout the cytoplasm

CCCCC[C@H](O)/C=C/[C@@H]1[C@@H](C/C=C\CCCC(=O)O)[C@@H](O)C[C@H]1O [pgF2α]
effect on the elongation of Amax produced by EGF and indomethacin ([2]; increasing concentrations added to cells grown with EGF and indomethacin): has no effect

CC(C(=O)O)c1ccc(C(=O)c2cccs2)cc1 (stereo not shown) [suprofen]
potentiation of EGF-induced elongation [2]: Potentiation of EGF-induced elongation also occurs | rank order of potency on corneal endothelial cell shape [2]: indomethacin<suprofen<flurbiprofen

Cholera toxin
cell shape / elongation, agent alone [1]: had no effect on cell shape | effect on EGF and INDO-induced elongation [1]: antagonized | effect on EGF-induced elongation [1]: EGF-induced elongation did not occur | effect on TPA-induced elongation [1]: did not prevent elongation | effect on cell density / mitogenic response to TPA [1]: potentiate the mitogenic response | effect on cell density / mitosis in presence of EGF and INDO [1]: without preventing increased cell density | effect on the mitogenic effect of EGF [1]: potentiated

Pertussis toxin
cell density / mitosis, agent alone [1]: had no effect on either parameter | cell density in combination with EGF or INDO [1]: without significantly altering cell density | cell shape / elongation, agent alone [1]: had no effect on either parameter | cell shape in combination with EGF or INDO [1]: restored polygonal cell shape

epidermal growth factor [EGF]
synthesis of pgE2 [3]: unaffected | ultrastructure by transmission electron microscopy [5]: Junctional complexes were absent | time for association to be complete (cat corneal endothelium): approximately 120 minutes | time at which DNA synthesis reaches a maximum [6]: about 22 hours | time at which increased DNA synthesis begins after addition [6]: approximately 15 hours | relative average percent change of the shape factor, difference from control (FIG. 3) ([7]; EGF+indomethacin at 50, 100, 150 minutes, EGF at 100, 150 minutes, p<0.001): significantly different from the control group | time of the peak of the shape change ([7]; one cornea of each group, control 200 minutes): 150 min | migration of cells near the wound boundary compared with the control group [8]: migrated significantly more; also recorded: significantly increased migration | cell density ([2]; at confluence, versus control conditions): little or no effect | cell shape at confluence [2]: spindle-shaped at confluence | distribution of major axes (Amax) ([2]; cultured with agent): significantly greater distribution of major axes | ratio Per/Amax ([2]; cultured with agent, perfectly round cell 3.14): decreases significantly | wound closure time compared with the control group ([9]; EGF 10 ng/ml, indomethacin 1 μM in M-K medium): shortened the wound closure time | time of maximum wound area after wounding ([9]; EGF 10 ng/ml, indomethacin 1 μM in M-K medium, control 20 minutes): 10 min | time for wound area to decrease to 50% of the original size ([9]; EGF 10 ng/ml, indomethacin 1 μM in M-K medium, control about 240 minutes): ≤ 120 min | time for wounds to close to 80% of the original size ([9]; after wounding, EGF treated): ≤ 250 min
